The record followed here is PMC5526604 (Journal of medicinal chemistry, 2017).

Read-outs that look alike come from different tables or passages of the source.

The target in one experiment is HIV integrase (Human immunodeficiency virus type 1 group M subtype B, UniProt P04585). Nature of the experiment: HIV IN assay. The experiment is classed as biochemical, HIV-1.
Experiment [1] has as its target HIV RT-associated RNase H (Human immunodeficiency virus type 1 group M subtype B, UniProt P04585). The note with it: biochemical.
[2] abbreviates: read-out: Biochemical Inhibition INST IC50, as relisted in Table 2.

Regarding `O=C(Nc1ccc(-c2ccccc2)cc1)c1c(Nc2ccc(-c3ccccc3)cc2)[nH]c(=O)n(O)c1=O` [Compound 10a, N-([1,1′-Biphenyl]-4-yl)-6-([1,1′-biphenyl]-4-ylamino)-3-hydroxy-2,4-dioxo-1,2,3,4-tetrahydropyrimidine-5-carboxamide], the IC50 (usually the concentration that inhibits the measured activity by half) against HIV integrase was more than 100 µM. Still for that read-out and setting: to `O=C(Nc1ccc(-c2ccc(F)cc2)cc1)c1c(Nc2ccc(-c3ccccc3)cc2)[nH]c(=O)n(O)c1=O` [Compound 10b, 6-([1,1′-Biphenyl]-4-ylamino)-N-(4′-fluoro-[1,1′-biphenyl]-4-yl)-3-hydroxy-2,4-dioxo-1,2,3,4-tetrahydropyrimidine-5-carboxamide] belongs more than 100 µM; to `COc1ccc(-c2ccc(NC(=O)c3c(Nc4ccc(-c5ccccc5)cc4)[nH]c(=O)n(O)c3=O)cc2)cc1` [Compound 10c, 6-([1,1′-Biphenyl]-4-ylamino)-3-hydroxy-N-(4′-methoxy-[1,1′-biphenyl]-4-yl)-2,4-dioxo-1,2,3,4-tetrahydropyrimidine-5-carboxamide], more than 100 µM; to `O=C(NCc1ccc(F)cc1)c1c(Nc2ccc(-c3ccccc3)cc2)[nH]c(=O)n(O)c1=O` [Compound 10e, N-(4-Fluorobenzyl)-1-(hydroxy)-1,2,3,6-tetrahydro-2,6-dioxo-4-(biphenylamino)pyrimidine-5-carboxamide], more than 100 µM. Take `O=C(NCc1cccc(F)c1)c1c(Nc2ccc(-c3ccccc3)cc2)[nH]c(=O)n(O)c1=O` [Compound 10f, N-(3-Fluorobenzyl)-1-(hydroxy)-1,2,3,6-tetrahydro-2,6-dioxo-4 (biphenylamino)pyrimidine-5-carboxamide]: the IC50 on HIV integrase and on HIV integrase (setting [2]) was more than 100 µM each time. Compound `O=C(NCc1ccccc1F)c1c(Nc2ccc(-c3ccccc3)cc2)[nH]c(=O)n(O)c1=O` [Compound 10g, N-(2-Fluorobenzyl)-1-(hydroxy)-1,2,3,6-tetrahydro-2,6-dioxo-4-(biphenylamino)pyrimidine-5-carboxamide] showed an IC50 against HIV integrase of more than 100 µM. In the case of `O=C(NCc1cccc(Cl)c1F)c1c(Nc2ccc(-c3ccccc3)cc2)[nH]c(=O)n(O)c1=O` [Compound 10h, N-(3-Chloro-2-fluorobenzyl)-1-(hydroxy)-1,2,3,6-tetrahydro-2,6-dioxo-4-(biphenylamino)pyrimidine-5-carboxamide], the IC50 against HIV integrase is more than 100 µM. `O=C(NCc1ccc(F)cc1F)c1c(Nc2ccc(-c3ccccc3)cc2)[nH]c(=O)n(O)c1=O` [Compound 10i, N-(2,4-Difluorobenzyl)-1-(hydroxy)-1,2,3,6-tetrahydro-2,6-dioxo-4-(biphenylamino) pyrimidine-5-carboxamide]: the IC50 at HIV integrase and on HIV integrase (setting [2]) was more than 100 µM each time. Take `O=C(NCc1cc(F)ccc1F)c1c(Nc2ccc(-c3ccccc3)cc2)[nH]c(=O)n(O)c1=O` [Compound 10j, N-(2,5-Difluorobenzyl)-1-(hydroxy)-1,2,3,6-tetrahydro-2,6-dioxo-4-(biphenylamino) pyrimidine-5-carboxamide]: the IC50 against HIV integrase and at HIV integrase (setting [2]) was more than 100 µM in each case. `O=C(Nc1ccc(-c2ccccc2)cc1)c1c(NCc2ccc(-c3ccccc3)cc2)[nH]c(=O)n(O)c1=O` [Compound 10k, N-([1,1′-Biphenyl]-4-yl)-6-(([1,1′-biphenyl]-4-ylmethyl)amino)-3-hydroxy-2,4-dioxo-1,2,3,4-tetrahydropyrimidine-5-carboxamide]: the IC50 against HIV integrase and at HIV integrase (setting [2]) was more than 100 µM in each case. On to `O=C(NCc1ccc(-c2ccccc2)cc1)c1c(NCc2ccc(-c3ccccc3)cc2)[nH]c(=O)n(O)c1=O` [Compound 10l], for which the IC50 on HIV integrase and at HIV integrase (setting [2]) was more than 100 µM throughout.

For `O=C(Nc1ccccc1)c1c(NCc2ccc(-c3ccccc3)cc2)[nH]c(=O)n(O)c1=O` [Compound 10m, 6-(([1,1′-Biphenyl]-4-ylmethyl)amino)-3-hydroxy-2,4-dioxo-N-phenyl-1,2,3,4-tetrahydropyrimidine-5-carboxamide], the IC50 on HIV integrase and on HIV integrase (setting [2]) was more than 100 µM in each case. As to `O=C(Nc1ccc(-c2ccccc2)cc1)c1c(NCc2ccccc2)[nH]c(=O)n(O)c1=O` [Compound 10o, N-([1,1′-Biphenyl]-4-yl)-6-(benzylamino)-3-hydroxy-2,4-dioxo-1,2,3,4-tetrahydropyrimidine-5-carboxamide], the IC50 on HIV integrase and on HIV integrase (setting [2]) was more than 100 µM each time. With `O=C(NCc1ccc(-c2ccccc2)cc1)c1c(NCc2ccccc2)[nH]c(=O)n(O)c1=O` [Compound 10p, N-([1,1′-Biphenyl]-4-ylmethyl)-6-(benzylamino)-3-hydroxy-2,4-dioxo-1,2,3,4-tetrahydropyrimidine-5-carboxamide], the IC50 at HIV integrase and at HIV integrase (setting [2]) was more than 100 µM in each case.

For `O=C(Nc1ccccc1)c1c(NCc2ccccc2)[nH]c(=O)n(O)c1=O` [Compound 10q, 6-(Benzylamino)-3-hydroxy-2,4-dioxo-N-phenyl-1,2,3,4-tetrahydropyrimidine-5-carboxamide], the IC50 against HIV integrase and at HIV integrase (setting [2]) was more than 100 µM each time. With `O=C(NCc1ccccc1)c1c(Nc2ccccc2)[nH]c(=O)n(O)c1=O` [Compound 10s, N-Benzyl-1-(hydroxy)-1,2,3,6-tetrahydro-2,6-dioxo-4-(phenylamino)pyrimidine-5-carboxamide], the “selectivity of RNase H inhibition over INST inhibition” value in experiment [1] is recorded as approximately 4 fold. Turning to `CCc1ccc(NC(=O)c2c(NCc3ccccc3)[nH]c(=O)n(O)c2=O)cc1` [Compound 10v, 6-(Benzylamino)-N-(4-ethylphenyl)-3-hydroxy-2,4-dioxo-1,2,3,4-tetrahydropyrimidine-5-carboxamide], the IC50 at HIV integrase and on HIV integrase (setting [2]) was more than 100 µM throughout. Regarding `O=C(Nc1ccc(C(F)(F)F)cc1)c1c(NCc2ccccc2)[nH]c(=O)n(O)c1=O` [Compound 10y, 6-(Benzylamino)-3-hydroxy-2,4-dioxo-N-(4-(trifluoromethyl)phenyl)-1,2,3,4-tetrahydropyrimidine-5-carboxamide], the IC50 on HIV integrase and at HIV integrase (setting [2]) was more than 100 µM in each case.
